# In US20190125735A1, “INHIBITION OF P38 MAPK FOR THE TREATMENT OF CANCER” (Board of Regents, The University of Texas System, priority 2015, published 2019):
# Legend:
# [1] = tested on: DU145 cells; assay: MTS cell survival assay, DU145 cells; format: cell-based, human
# Experimental: (§1) Immunoblotting, Immunofluorescence, RTPCR, wound healing- and tumorsphere assays were performed as previously described (Sarkar et al., 2015). Cell viability (MTS) was assessed using the CellTiter96 Aqueous One-Solution Cell Proliferation Assay kit (Promega).
# [2] = tested on: ZEB1; assay: ZEB1 mRNA and protein levels (qRT-PCR, immunoblotting); format: cell-based, human
# Excerpt: First, the elevated levels of FOXC2 and ZEB1 transcripts were confirmed in HMLER-FOXC2 cells versus HMLER-vector cells by qRT-PCR (FIG. 19A). […] Accordingly, shRNA-mediated suppression of FOXC2 in a panel of cell lines yielded a >50-fold decrease in ZEB1 mRNA (FIG. 19E) and a >80% reduction in ZEB1 protein levels (FIG. 19F). […] Conversely, a >50-fold increase as found in miR-200b, and a >1000-fold increase in miR-200c, following FOXC2 knockdown compared to control shRNA-transduced counterparts (FIG. 19H). To ascertain whether FOXC2 directly regulates miR-200 or ZEB1 expression, the promoter regions of both miR-200 clusters on chromosomes 1 and 12 as well as the ZEB1 promoter were analyzed, and a conserved FOXC2-binding element within the ZEB1 promoter was identified. […] Furthermore, in support of the notion that p38-mediated phosphorylation of FOXC2 regulates ZEB1 expression, elevated ZEB1 protein levels were only detected in HMLER-FOXC2 and HMLER-FOXC2(S367E) cells (FIG. 19L, lanes 2 and 3), but not in HMLER-FOXC2(S367A) cells (FIG. 19L, lane 4).
# Immunoblotting and immunofluorescence (Mani et al., 2008) were performed as previously described. Primary antibodies were as follows: β-actin (Sigma, St Louis, Mo., USA; A3853), mouse anti-human FOXC2 (Dr. Naoyuki Miura, Hamamatsu University School of Medicine, Japan), goat polyclonal anti-FOXC2 (Santa Cruz Biotechnology, Dallas, Tex., USA; sc-21397), p-p38 (Cell Signaling, Danvers, Mass., USA; 4511), p38 (Cell Signaling; 9211), E-cadherin (BD Biosciences, San Jose, Calif., USA; 61081), fibronectin (BD Biosciences; 610077), vimentin (Novus Biologicals, Littleton, Colo., USA; NB200-623), ZEB1 (Novus Biologicals; NBP1-05987), and HA (Covance, Princeton, N.J., USA; MMS-101P).
# (§2) qRT-PCR was performed using SYBR Green (Applied Biosystems, Waltham, Mass., USA) for mRNAs and Taqman (Applied Biosystems) for microRNAs as described previously (Hollier et al., 2013).
# [3] = tested on: Foxc2; assay: Foxc2/FOXC2 protein immunoblotting in 4T1 cells; format: cell-based, mouse
# [4] = tested on: FOXC2; assay: FOXC2 transcript levels by qRT-PCR; format: cell-based, human; conditions: treated vs vehicle
# Experimental: as §2
# [5] = tested on: DU145 cells; assay: Morphology and marker expression (qRTPCR, immunoblotting, IF) in DU145 cells; format: cell-based, human
# Experimental: Cell lines: Authenticated LNCaP, DU145, and PC3 cells were procured from ATCC and cultured in RPMI with 10% fetal bovine serum (FBS) with penicillin/streptomycin. Cells overexpressing EMT transcription factors and shRNA were also cultured in the same media. HEK293T cells were cultured in DMEM with 10% FBS and penicillin/streptomycin. All cell lines used for this study were recently confirmed negative for mycoplasma contamination.
# as §1
# [6] = tested on: HMLE-Snail-ER cells; assay: 4-OHT inducible EMT in HMLE-Snail-ER cells, immunoblotting; format: cell-based, human; conditions: HMLE-Snail-ER concurrently exposed to 4-OHT and SB203580
# Experimental: To ascertain whether inhibiting p38 impedes the initiation of EMT, two dynamic models of EMT induction were utilized. First, MCF10A immortalized human mammary epithelial cells were treated with TGFβ1 which elicits EMT. […] Second, an inducible EMT system was used wherein a fusion protein, comprising the EMT-inducing transcription factors Snail or Twist and the estrogen-binding domain of the estrogen receptor (ER), is stably expressed in epithelial HMLE cells (HMLE-Snail-ER, HMLE-Twist-ER). Addition of the ER-ligand tamoxifen (4-OHT) promotes nuclear translocation of the Snail-ER and Twist-ER proteins and elicits EMT. […] Similarly, p38 shRNA abolished the capacity of HMLE-Twist-ER cells to undergo EMT (FIG. 4E, compare lanes 4 to 8) and to form spheres (FIG. 16F) in response to 4-OHT treatment.
# Immortalized human mammary epithelial (HMLE) cells expressing empty vector (pWZL), Snail, Twist, Goosecoid (GSC), or an activated form of TGFβ1, V12H-Ras-transformed HMLE (HMLER) and HMLER-FOXC2 cells were maintained as previously described (Elenbaas et al., 2001) For 4-hydroxy-tamoxifen (4-OHT) treatment, HMLE-Snail-ER or HMLE-Twist-ER cells were exposed to 20 nM 4-OHT for the indicated number of days. MCF7, MDA-MB-231 and SUM159 human breast cancer cells and the 4T1 mouse mammary carcinoma cells were cultured as described. […]
# [7] = tested on: HMLER cells; assay: Sphere formation of HMLER cells expressing FOXC2 variants; format: cell-based, human
# Experimental: For this, phosphomimetic FOXC2(S367E) and non-phosphorylatable FOXC2(S367A) mutants were generated and their ability to bestow mesenchymal and stem-cell traits relative to wild-type FOXC2 (referred to as FOXC2) was evaluated.
# [8] = tested on: HMLE cells; assay: FOXC2 immunostaining at leading edge of scratched HMLE monolayer; format: cell-based, human; conditions: 9 h post-wound
# Experimental: FIGS. 13A-13F: FOXC2 expression correlates with p38 activation in cells with mesenchymal and stem cell properties. […] (B) Cell lysates from the indicated cells were analyzed by immunoblotting for p-p38, p38 and FOXC2. β-actin was used as a loading control. […] Cell lysates were analyzed by immunoblotting for FOXC2. β-actin was used as a loading control (D) The indicated cells were transduced with p38 shRNA (shp38) or control shRNA (shControl). Cell lysates were analyzed by immunoblotting for p38 and FOXC2. β-actin was used as a loading control. […] (F) For the wound healing assay, a confluent monolayer culture of epithelial HMLE cells was scratched with a sterile pipette tip. […] Nuclei were counterstained with DAPI. Scale bar, 20 μm.
smiles,measurement,setting,value
"C[S+]([O-])c1ccc(-c2nc(-c3ccc(F)cc3)c(-c3ccncc3)[nH]2)cc1 (stereo not drawn) [SB203580, 4-(4-Fluorophenyl)-2-(4-methylsulfinylphenyl)-5-(4-pyridyl) 1H-imidazole]",Sensitivity of cells to Docetaxel (cell survival),"[1]; DU145, SB203580 pre-treatment then co-treatment with SB203580 and Docetaxel",significantly resensitized
same,Sensitivity of cells to Enzalutamide (cell survival),"[1]; DU145, SB203580 pre-treatment then co-treatment with SB203580 and Enzalutamide",significantly resensitized
same,ZEB1 protein levels,[2]; HMLER-FOXC2(S367E) cells,remained relatively high
same,ZEB1 protein levels,[2]; HMLER-FOXC2 cells,decreased
same,Reduction of ZEB1 mRNA and protein levels compared to vehicle,[2]; SB203580 treatment,> 60 fold
same,Phosphomimetic FOXC2(S367E) levels,[3]; 4T1-FOXC2(S367E) cells,remained unaltered
same,Endogenous Foxc2 protein levels,"[3]; 4T1 cells, 24 h",significant reduction of endogenous Foxc2 protein levels
same,Endogenous Foxc2 protein levels,[3]; vector-transduced 4T1 cells,abolished endogenous Foxc2 protein levels
same,FOXC2 transcript levels,[4],neither SB203580 nor p38 shRNA had a discernible effect on FOXC2 transcript levels
same,AR and PSA expression,"[5]; DU145, 5 μM, 7 days",restoration of AR and PSA expression
same,Expression of Bmi1 and Sox2,"[5]; DU145, 5 μM, 7 days",significant reduction
same,FOXC2 expression,"[5]; DU145, 5 μM, 7 days",dramatic loss in FOXC2 expression
same,Morphology / phenotype,"[5]; DU145, 5 μM, 7 days",acquisition of an epithelial phenotype
same,"Expression of AR, PSA and E-cadherin over time (qRTPCR)","[5]; DU145, days 0-7 after treatment","consistently increased right after 48 hours, but reached highest levels at day 7"
same,EMT and FOXC2 upregulation,[6],failed to undergo EMT or upregulate FOXC2
same,Sphere-forming capacity,[7]; HMLER-FOXC2(S367E) cells,retained the ability to form spheres even in the presence of SB203580
same,Sphere-forming capacity,[7]; HMLER-FOXC2 cells,reduced
same,Upregulation of FOXC2 at the leading edge of scratch,[8],abrogated the upregulation of FOXC2 at the leading edge
